Measured values published in US12636285B2 (ViiV Healthcare Company, priority 2019, dated 2026).
Values after ≈ are worked out from the molar mass of the structure shown. Values joined by “and” are separate entries in the source; they are usually repeats but may differ in a detail not shown here. Equal entries are not always repeated. Where two headings read alike, the source gives them in different places.

Columns and labels:
OAT3 = target: T1, OAT3 (Homo sapiens, UniProt Q8TCC7); experiment: In vitro transporter inhibition, OAT3; type: in vitro ADME
T1 sequence (Q8TCC7 1-542): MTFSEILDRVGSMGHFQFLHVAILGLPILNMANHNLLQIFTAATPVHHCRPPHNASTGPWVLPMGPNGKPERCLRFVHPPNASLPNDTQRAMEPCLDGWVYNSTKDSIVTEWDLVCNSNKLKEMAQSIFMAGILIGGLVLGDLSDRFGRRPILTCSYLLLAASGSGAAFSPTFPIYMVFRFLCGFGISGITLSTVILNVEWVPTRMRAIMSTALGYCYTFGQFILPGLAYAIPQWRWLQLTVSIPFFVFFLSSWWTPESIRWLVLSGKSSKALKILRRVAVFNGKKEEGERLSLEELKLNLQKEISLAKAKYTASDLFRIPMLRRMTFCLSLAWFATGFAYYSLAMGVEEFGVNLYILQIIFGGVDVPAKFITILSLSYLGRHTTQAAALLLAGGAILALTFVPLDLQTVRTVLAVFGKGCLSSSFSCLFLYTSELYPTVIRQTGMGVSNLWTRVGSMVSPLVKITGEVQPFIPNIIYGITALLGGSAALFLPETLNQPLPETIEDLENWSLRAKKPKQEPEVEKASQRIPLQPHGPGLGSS
Source text: (§1) However, based on PBPK modeling, no interaction with OAT substrates is expected at clinically relevant concentrations.

HIV-1 integrase = HIV-1 integrase (Human immunodeficiency virus type 1 group M subtype B, UniProt P04585)
[1] = Mass balance studies, single-dose oral [14C] drug; type: in vivo, human; conditions: single-dose oral [14C] drug
CYP1A2, CYP2B6, CYP3A4 = experiment: In vitro CYP induction; type: in vitro ADME
[2] = system: recombinant HIV-1 strain NL432 viruses; type: cell-based
[3] = Pharmacokinetics in specific populations (renal, hepatic impairment, UGT1A1 genotype); type: in vivo, human; conditions: for pharmacokinetic differences vs matching healthy subjects: oral cabotegravir
Source text: No dosage adjustment is necessary for patients with mild to severe renal impairment (not on dialysis).
No dosage adjustment is necessary for patients with mild to moderate hepatic impairment (Child-Pugh Score A or B).
No dose adjustment is required in subjects with UGT1A1 polymorphisms.

HIV-1 [4] = experiment: Antiviral activity in combination with other antivirals, cell culture; type: cell-based; conditions: cell culture
[5] = system: CYP1A2, 2A6, 2B6, 2C8, 2C9, 2C19, 2D6, 3A4; UGT1A1, 1A3, 1A4, 1A6, 1A9, 2B4, 2B7, 2B15, 2B17; P-gp; BCRP; BSEP; OCT1, OCT2; OATP1B1, OATP1B3; MATE 1, MATE 2-K …; experiment: Inhibition of enzymes and transporters; type: in vitro ADME
HIV-1 clinical isolates = experiment: Antiviral activity in PBMCs against clinical isolates; type: cell-based; conditions: Human immunodeficiency virus 1, PBMC
[6] = system: laboratory strains of HIV-1 (subtype B); experiment: Antiviral activity in PBMCs and 293 cells; type: cell-based; conditions: Human immunodeficiency virus 1, HEK293, n=4 strains
[7] = target: T2, renal organic anion transporters (OAT)1 (Homo sapiens, UniProt Q4U2R8); experiment: In vitro transporter inhibition, OAT1; type: in vitro ADME
T2 sequence (Q4U2R8 1-563): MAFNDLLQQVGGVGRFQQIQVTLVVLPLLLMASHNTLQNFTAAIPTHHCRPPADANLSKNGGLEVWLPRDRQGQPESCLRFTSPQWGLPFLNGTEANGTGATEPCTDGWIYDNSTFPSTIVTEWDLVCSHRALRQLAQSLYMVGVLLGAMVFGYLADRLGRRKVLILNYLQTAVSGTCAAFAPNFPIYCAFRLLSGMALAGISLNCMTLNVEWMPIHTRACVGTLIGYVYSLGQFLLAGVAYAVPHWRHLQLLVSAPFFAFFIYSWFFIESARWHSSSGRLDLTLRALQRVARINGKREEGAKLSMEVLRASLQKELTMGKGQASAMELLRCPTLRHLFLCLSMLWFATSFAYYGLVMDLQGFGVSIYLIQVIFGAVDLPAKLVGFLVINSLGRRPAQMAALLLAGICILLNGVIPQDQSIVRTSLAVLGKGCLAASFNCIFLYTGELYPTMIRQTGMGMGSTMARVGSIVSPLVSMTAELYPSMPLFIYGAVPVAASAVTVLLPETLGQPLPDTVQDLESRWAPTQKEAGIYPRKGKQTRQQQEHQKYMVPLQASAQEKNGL
Source text: as §1

[8] = Genotoxicity: bacterial reverse mutation assay, mouse lymphoma assay, in vivo rodent micronucleus assay
[9] = Multiple-dose pharmacokinetics after monthly IM injections, population PK post-hoc estimates FLAIR and ATLAS; type: in vivo, human; conditions: 400-mg monthly IM injection
HIV-1 [10] = system: HIV-1
Protein-adjusted IC90 = type: cell-based; conditions: read-out: protein-adjusted IC90 (PA-IC90)
Source text: Mar. 4-7, 2019, Seattle, WA.).

clinical HIV-2 isolates = experiment: Antiviral activity against clinical HIV-2 isolates; type: cell-based; conditions: Human immunodeficiency virus 2, n=4
[11] = oral administration once daily; cited from earlier work
[12] = Pharmacokinetic properties of the components of the Combination (Table 6); parameters: species or system human; conditions: in vivo
[13] = Reproduction and development studies in rats

In the case of `C[C@H]1CO[C@@H]2Cn3cc(C(=O)NCc4ccc(F)cc4F)c(=O)c(O)c3C(=O)N12` [Cabotegravir, (3S,11aR)-N-[(2,4-difluorophenyl)methyl]-6-hydroxy-3-methyl-5,7-dioxo-2,3,5,7,11,11a-hexahydro[1,3]oxazolo[3,2-a]pyrido[1,2-d]pyrazine-8-carboxamide], the IC50 (OAT3) is reported as 410 nM, the IC50 (HIV-1 integrase) is reported as 3 nM and the “% of dose excreted as total 14C in feces” value [1] is reported as 59%. The “% of dose excreted as total 14C in urine” value [1] was 27%, the “% of dose excreted as unchanged drug in feces” value [1] was 47% and the “% of dose excreted as unchanged drug in urine” value [1] was 0%. For the same compound, the “induction of CYP1A2, CYP2B6, or CYP3A4” value (CYP1A2, CYP2B6, CYP3A4) was “did not induce”, the “activity against viruses with NNRTI substitutions K103N or Y188L, or NRTI substitutions M184V, D67N/K70R/T215Y, or V751/F77L/F116Y/Q151M” value [2] was “active” and the reduction in susceptibility ([2]; E138K+Q148K) was 81 fold. The reduction in susceptibility ([2]; Q148R+N155H) was 61 fold, the “increase in mean steady-state AUC, Cmax, and Ctau vs normal UGT1A1 metabolism” value ([3]; UGT1A1 genotypes conferring poor metabolism, long-acting injection) was 1.2 fold and the “pharmacokinetic differences vs matching healthy subjects” value ([3]; moderate hepatic impairment) was “No clinically important pharmacokinetic differences”. For the same compound, the “pharmacokinetic differences vs matching healthy subjects” value ([3]; severe renal impairment (CrCL<30 mL/min, not on dialysis)) was “No clinically important pharmacokinetic differences”, the “antiviral activity in combination with rilpivirine, emtricitabine (FTC), lamivudine (3TC), or tenofovir disoproxil fumarate (TDF)” value (HIV-1 [4]) was “not antagonistic” and the “inhibition of listed CYP, UGT enzymes and transporters” value [5] was “not a clinically relevant inhibitor”. It also gave an EC50 (HIV-1 clinical isolates; read-out: EC50 range, panel of 24 HIV-1 clinical isolates, PBMCs) of 0.02 to 1.06 nM, an EC50 (HIV-1 clinical isolates; read-out: EC50 range, subtype B clinical isolates, n=3) of 0.02 to 0.5 nM and an EC50 (HIV-1 clinical isolates; read-out: median EC50, panel of 24 HIV-1 clinical isolates (group M subtypes A-G, group O), PBMCs) of 0.19 nM. For the same compound, the EC50 (HIV-1 clinical isolates; read-out: median EC50, subtype B clinical isolates, n=3) was 0.05 nM, the EC50 [6] was 0.22 to 1.7 nM and the IC50 [7] was 810 nM. For the same compound, the genotoxicity [8] was “not genotoxic”, the “Ctrough, geometric mean” value [9] was 2900 ng/mL and the AUC ([9]; human, in vivo, read-out: AUCtau, geometric mean) was 2460 µg·h/mL. The Cmax ([9]; human, in vivo, read-out: Cmax, geometric mean) was 4200 ng/mL, the “decreased susceptibility in virologic failures” value (HIV-1 [10]; G140R, n=1) was 7 fold and the “decreased susceptibility in virologic failures” value (HIV-1 [10]; N155H, n=1) was 3 fold. The “decreased susceptibility in virologic failures” value (HIV-1 [10]; Q148R, n=2) was 5 fold and 9 fold, the IC90 (Protein-adjusted IC90) was 0.166 µg/mL (≈ 0.41 µM) and the EC50 (clinical HIV-2 isolates; read-out: EC50 range) was 0.1 to 0.14 nM. For the same compound, the EC50 (clinical HIV-2 isolates; read-out: median EC50) was 0.12 nM, the half-life [11] was 40 h and the Tmax ([12]; human, im, intramuscular injection, read-out: Tmax, median (converted)) was 168 h. For the same compound, the half-life ([12]; human, im, intramuscular injection, read-out: t1/2 (absorption rate limited), mean) was 941 to 1930 h, the “Major route of elimination” value [12] was “Metabolism” and the Metabolic pathways [12] was “UGT1A1”. For the same compound, the Metabolic pathways ([12]; minor pathway) was “UGT1A9 (minor)”, the “effect on parturition, prenatal and postnatal development study” value ([13]; oral 1,000 mg/kg/day) was “delayed the onset of parturition” and the “embryo-fetal development in rats” value ([13]; oral 1,000 mg/kg/day, in the presence of maternal toxicity) was “alterations in fetal growth (decreased body weights)”. The placental transfer ([13]; pregnant rats) was “crosses the placenta”.
